Structures are written as SMILES.

These results are taken from patent publication US20120225885A1, “IMIDAZOLE DERIVATIVES AND METHODS OF USE THEREOF” (priority 2009, published 2012).

The assay deals with H3 receptor (UniProt Q9Y5N1). The experiment in a line: H3 Receptor Binding Assay. The note with it: displacement of 3 nM [3H]R-α-methyl histamine or [3H]Nα-methyl histamine; membranes from guinea pig brain, alternatively recombinant human receptor in HEK-293 cells; 30° C., 30 minutes; read-out: H3 Ave Ki. The procedure: The source of the H3 receptors in this experiment was guinea pig brain. Alternatively, the source of H3 receptors was recombinant human receptor, expressed in HEK-293 (human embryonic kidney) cells.
The animals weighed 400-600 g. The brain tissue was homogenized with a solution of 50 mM Tris, pH 7.5. The final concentration of tissue in the homogenization buffer was 10% w/v. The homogenates were centrifuged at 1,000×g for 10 minutes. in order to remove clumps of tissue and debris. The resulting supernatants were then centrifuged at 50,000×g for 20 minutes in order to sediment the membranes, which were next washed three times in homogenization buffer (50,000×g for 20 minutes. each). The membranes were frozen and stored at −70° C. until needed.
Compounds of the invention to be tested were dissolved in DMSO and then diluted into the binding buffer (50 mM Tris, pH 7.5) such that the final concentration was 2 μg/ml with 0.1% DMSO. Membranes were then added (400 μg of protein, 5 μg in the case of recombinant human receptor) to the reaction tubes. The reaction was started by the addition of 3 nM [^3H]R-α-methyl histamine (8.8 Ci/mmol) or 3 nM [^3H]N^α-methyl histamine (80 Ci/mmol) and continued under incubation at 30° C. for 30 minutes. Bound ligand was separated from unbound ligand by filtration, and the amount of radioactive ligand bound to the membranes was quantitated by liquid scintillation spectrometry. All incubations were performed in duplicate and the standard error was always less than 10%. Compounds that inhibited more than 70% of the specific binding of radioactive ligand to the receptor were serially diluted to determine a Ki (nM).
As to `C[C@@H]1CCCN1CCc1cn2cc(Br)ccc2n1` [Compound 1], the Ki is 327 nM.

As for `C[C@@H]1CCCN1CCc1cn2cc(-c3ccc(C#N)cc3)ccc2n1` [Compound 2], the Ki amounted to 27 nM.

For `C[C@@H]1CCCN1CCc1cn2cc(-n3ncccc3=O)ccc2n1` [Compound 3], the Ki came out at 76.8 nM.

With `C[C@@H]1CCCN1CCc1cn2cc(-c3ccc(N(C)C)cc3)ccc2n1` [Compound 4], the Ki was found to be 106 nM.

`COc1ccc(-c2ccc3nc(CCN4CCC[C@H]4C)cn3c2)cc1` [Compound 5]: the Ki amounted to 91.8 nM.

On to `C[C@@H]1CCCN1CCc1cn2cc(-c3ccc(F)cc3)ccc2n1` [Compound 6], for which the inhibitory constant (Ki) stood at 58.5 nM.

`C[C@@H]1CCCN1CCc1cn2cc(-c3ccc(O)cc3)ccc2n1` [Compound 7]: the inhibition constant Ki worked out at 64.5 nM.

Take `CC(=O)Nc1ccc(-c2ccc3nc(CCN4CCC[C@H]4C)cn3c2)cc1` [Compound 8]: the Ki turned out to be 67.5 nM.

Take `C[C@@H]1CCCN1CCc1cn2cc(-c3cccc(C#N)c3)ccc2n1` [Compound 9]: the Ki amounted to 13 nM.

With `COc1ccccc1-c1ccc2nc(CCN3CCC[C@H]3C)cn2c1` [Compound 10], the Ki came to 163 nM.

With `C[C@@H]1CCCN1CCc1cn2cc(-c3ccccc3F)ccc2n1` [Compound 11], the Ki is 74 nM.

Turning to `C[C@@H]1CCCN1CCc1cn2ccc(Br)cc2n1` [Compound 12], the Ki was 101 nM.

For the compound `C[C@@H]1CCCN1CCc1cn2ccc(-c3ccc(C#N)cc3)cc2n1` [Compound 13], the Ki is 34 nM.

On to `CCOc1cccc(-c2ccn3cc(CCN4CCC[C@H]4C)nc3c2)c1` [Compound 14], for which the Ki is 70 nM.

For the compound `C[C@@H]1CCCN1CCc1cn2ccc(-c3ccccc3F)cc2n1` [Compound 15], the Ki stood at 25 nM.

As to `C[C@@H]1CCCN1CCc1cn2cc(-c3ccc(F)c(C#N)c3)ccc2n1` [Compound 16], the Ki was 4 nM.

For the compound `C[C@@H]1CCCN1CCc1cn2cc(-c3ccc4ncccc4c3)ccc2n1` [Compound 17], the Ki came out at 11.2 nM.

In the case of `C[C@@H]1CCCN1CCc1cn2cc(-c3cncc(C#N)c3)ccc2n1` [Compound 18], the Ki amounted to 38.6 nM.

For the compound `C[C@@H]1CCCN1CCc1cn2ccc(-c3ccc(F)nc3)cc2n1` [Compound 19], the Ki turned out to be 36.5 nM.

As for `C[C@@H]1CCCN1CCc1cn2cc(-c3cccc4ncccc34)ccc2n1` [Compound 20], the Ki was found to be 104 nM.

In the case of `C[C@@H]1CCCN1CCc1cn2cc(-c3ccc4[nH]ccc4c3)ccc2n1` [Compound 21], the Ki worked out at 459 nM.

Regarding `C[C@@H]1CCCN1CCc1cn2cc(-c3ccc(=O)n(C)c3)ccc2n1` [Compound 22], the Ki amounted to 69 nM.

With `C[C@@H]1CCCN1CCc1cn2cc(-c3cnc(N)c(C#N)c3)ccc2n1` [Compound 23], the Ki was found to be 22 nM.

In the case of `C[C@@H]1CCCN1CCc1cn2cc(-c3cncnc3)ccc2n1` [Compound 24], the Ki was 366 nM.

With `C[C@@H]1CCCN1CCc1cn2cc(-c3cnc(N)cn3)ccc2n1` [Compound 25], the Ki was 246 nM.

With `Cc1nnc2ccc(-c3ccc4nc(CCN5CCC[C@H]5C)cn4c3)cn12` [Compound 26], the Ki is 7.1 nM.

As a reminder, the Ki is a measure of affinity in units of concentration, obtained from inhibition or displacement.
